Data from PubChem BioAssay (NCI).
Several values for one entry are separate records, joined by “and”; a condition that tells them apart may be missing. Identical values can stand only once.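 Results reflect a 48-hour exposure of cells in 96-well plates to compound at five concentrations. The concentration for 50% growth inhibition is given as GI50. The concentration for full growth arrest is given as TGI.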

What was measured:
Assay in all cases: DTP human tumour cell line panel, 48 h
[1] = tested on: SF-539 CNS
[2] = tested on: SK-MEL-28 melanoma
[3] = tested on: U251 CNS
[4] = tested on: TK-10 renal
[5] = tested on: SK-MEL-2 melanoma
[6] = tested on: 786-0 renal
[7] = tested on: SW-620 colon
[8] = tested on: HCT-15 colon
[9] = tested on: NCI-H226 lung
[10] = tested on: LOX IMVI melanoma

Compound | TGI [1] | TGI [2] | TGI [3] | TGI [4] | TGI [5] [µM] | TGI [6] | TGI [7] [µM] | TGI [8] | TGI [9] | TGI [10] [µM] | GI50 [1] [µM] | GI50 [9] [µM] | GI50 [2] [µM] | GI50 [3] [µM] | GI50 [10] [µM] | GI50 [4] [µM] | GI50 [6] [µM] | GI50 [7] [µM] | GI50 [5] [µM] | GI50 [8] [µM]
Oc1cc(O)c(Oc2cccc(O)c2O)c(O)c1 | > 100 µM | > 100 µM | > 100 µM | > 100 µM | > 100 | > 100 µM | > 100 | > 100 µM | – | – | – | – | – | – | – | – | – | – | – | –
CS(=O)(=O)OCCN1CCN(C(=O)c2cccc3c(Nc4ccc(S(=O)(=O)N=C(N)N)cc4)c4ccccc4nc23)CC1 | > 100 µM | > 100 µM | > 100 µM | > 100 µM | – | > 100 µM | – | > 100 µM | > 100 µM | – | – | – | – | – | – | – | – | – | – | –
Nc1nc2c(c(=O)[nH]1)NC(CO)CN2 (stereo unspecified) | > 100 µM | > 100 µM | > 100 µM | > 100 µM | – | > 100 µM | > 100 | > 100 µM | > 100 µM | 36.7 | – | – | – | – | – | – | – | – | – | –
CC(=O)N[C@@H]1C(O)CN2C(=O)C(=O)O[C@H](C(O)CO)[C@@H]12 (stereo partly specified) | > 100 µM | > 100 µM | > 100 µM | > 100 µM | > 100 | > 100 µM | > 100 | – | – | > 100 | – | – | – | – | – | – | – | – | – | –
CC1CC#CCOC(=O)CCCC1=O (stereo unspecified) | > 100 µM | > 100 µM | > 100 µM | > 100 µM | – | > 100 µM | > 100 | – | > 100 µM | > 100 | – | – | – | – | – | – | – | – | – | –
CC[C@@]1(O)C[C@H](OC2CC(N(C)C)C(OC3CC(O)C(OC4CCC(=O)C(C)O4)C(C)O3)C(C)O2)c2c(cc3c(c2O)C(=O)c2c(O)cccc2C3=O)[C@H]1C(=O)OC (stereo partly specified) | 0.0917 µM and 0.216 µM | 0.142 µM and 0.453 µM | 2.11 µM and 2.49 µM | 0.932 µM and 0.373 µM | 0.118 | 0.25 µM and 0.476 µM | – | 0.436 µM and 0.826 µM | 0.0948 µM and 0.13 µM | – | – | – | – | – | – | – | – | – | – | –
C1C[OH+]CC[OH+]CCNCC[OH+]CC[OH+]CCN1.[Cl-].[Pt+4] | > 100 µM | > 100 µM | > 100 µM | > 100 µM | – | > 100 µM | > 100 | – | > 100 µM | > 100 | > 100 | > 100 | > 100 | > 100 | > 100 | > 100 | > 100 | 57.3 | – | –
COC[C@@H](N=CN1CCc2cc(OC)c(OC)cc2[C@@H]1C)C(C)(C)C | > 100 µM | > 100 µM | > 100 µM | > 100 µM | > 100 | > 100 µM | > 100 | > 100 µM | > 100 µM | – | – | – | – | – | – | – | – | – | – | –
NCCCOCC(=O)O | > 100 µM | > 100 µM | > 100 µM | > 100 µM | > 100 | > 100 µM | > 100 | > 100 µM | > 100 µM | – | – | – | – | – | – | – | – | – | – | –
O=C1C=CC=CC2CC=C[C@@H](O)C12 (stereo partly specified) | 63.9 µM | – | – | > 100 µM | 58.5 | 33.8 µM | 35.3 | 35.2 µM | – | 38.9 | – | – | – | – | – | – | – | – | – | –
CCCCC1CC(c2cccc([N+](=O)[O-])c2)=NO1 (stereo unspecified) | > 100 µM | > 100 µM | > 100 µM | > 100 µM | > 100 | > 100 µM | > 100 | > 100 µM | > 100 µM | – | – | – | – | – | – | – | – | – | – | –
O=C(c1ccc2ccccc2c1)c1c(C(F)(F)F)n([O-])c2cc(F)c(F)cc2[n+]1=O | 3.98 µM | 12.7 µM | – | 3.41 µM | 5.52 | 3.23 µM | – | 4.37 µM | 44.2 µM | – | 2.21 | 4.86 | 4.22 | – | – | 1.76 | 1.74 | – | 2.16 | 1.76
CCCCS(=O)CCC(N)C(=O)O (stereo unspecified) | > 100 µM | > 100 µM | > 100 µM | > 100 µM | – | > 100 µM | > 100 | > 100 µM | > 100 µM | – | – | – | – | – | – | – | – | – | – | –
CCCCCCCCCCCCCCN | – | > 100 µM | > 100 µM | > 100 µM | > 100 | > 100 µM | > 100 | > 100 µM | – | > 100 | – | – | – | – | – | – | – | – | – | –
Cn1nc(-c2ccccc2)c(C(=O)/C=C/c2ccc(F)cc2)c(N2CCCCC2)c1=O | 16.4 µM | 16.2 µM | 27.7 µM | 69.9 µM | – | 18 µM | 45.3 | > 100 µM | – | 15.4 | – | – | – | – | – | – | – | – | – | –
CCCCc1c2c(nc3c1CCc1cc4cc5c(nc4nc1-3)-c1nc3c(c(CCCC)c1CC5)CCCC3)CCCC2 | > 100 µM | > 100 µM | > 100 µM | > 100 µM | – | > 100 µM | > 100 | > 100 µM | 89.1 µM | > 100 | – | – | – | – | – | – | – | – | – | –
CC1(C)C(=O)C(C)(C)C1=NN | > 100 µM | > 100 µM | > 100 µM | > 100 µM | – | > 100 µM | > 100 | > 100 µM | > 100 µM | > 100 | – | – | – | – | – | – | – | – | – | –
OCCCOC(c1ccccc1)(c1ccccc1)c1ccccc1 | > 100 µM | > 100 µM | > 100 µM | > 100 µM | – | > 100 µM | > 100 | > 100 µM | – | > 100 | – | – | – | – | – | – | – | – | – | –
O=C(c1ccccc1)C1CCCCN1C(=O)c1ccccc1 (stereo unspecified) | > 100 µM | > 100 µM | > 100 µM | > 100 µM | > 100 | > 100 µM | > 100 | > 100 µM | > 100 µM | – | – | – | – | – | – | – | – | – | – | –
